According to patent publication US20240009170A1, “INHIBITION OF GLYCOGEN SYNTHASE KINASE-3 (GSK-3)” (Brown University, priority 2020, published 2024):

What was measured:
[1] = tested on: HCT-116 colorectal cancer cells; test: Co-culture of HCT-116 and NK-92 cells with or without αPD-1 therapy; format: cell-based, Human; conditions: 9-ING-41+NK-92
Procedure: (§1) Immune cell co-culture experiments. Co-culture experiments were conducted with GFP+ SW480 or HCT-116 colorectal cancer cells and either NK-92 natural killer cells or TALL-104 T cells in a 48-well plate, in the presence or absence of 9-ING-41. HCT-116 cells were labeled using CellTracker™ Green CMFDA (5-chloromethylfluorescein diacetate), immune cells (NK-92, TALL-104) were labeled using CellTracker™ Blue CMAC Dye (7-amino-4-chloromethylcoumarin), and ethidium homodimer-1 (EthD-1) was used as a marker of cell death (Invitrogen, Thermo Fisher Scientific, Waltham, MA, USA).

[2] = in vivo; cited from earlier work
[3] = tested on: HT-29 colorectal cancer cells; test: Western blot analysis, HT-29; format: cell-based, Human
Procedure: Western blot analysis. Cells were plated in a 6-well plate and incubated overnight before the spent media was replaced with drugged media. Drug treatment lasted for indicated durations. Protein was extracted using radioimmunoprecipitation (RIPA) assay buffer (Cat #R0278, Sigma-Aldrich, St. Louis, MO) containing cOmplete™ Mini, EDTA-free Protease Inhibitor Cocktail (Cat #4693159001, Roche, Basel, Switzerland). Denaturing sample buffer was added, samples were boiled at 95 degrees for 10 minutes. An equal amount of protein lysate was electrophoresed through NuPAGE™ 4 to 12%, Bis-Tris, 1.5 mm, Mini Protein Gels (Invitrogen, Waltham, MA, USA) then transferred to PVDF membranes. The PVDF membrane was blocked with 5% non-fat milk (Sigma-Aldrich, St. Louis, MO, USA) in 1× TTBS. Primary antibodies were incubated with the transferred PVDF membrane in blocking buffer at 4° C. overnight. Secondary antibodies used included goat anti-rabbit IgG (H+L) secondary antibody, HRP (Cat #31460, Invitrogen, Waltham, MA, USA) and goat anti-mouse IgG (H+L) secondary antibody, HRP (Cat #31430, Invitrogen, Waltham, MA, USA). Signal was detected using a Syngene Imaging System.
9-ING-41 treatment decreases survival factor expression while increasing PD-L1 levels in colorectal cancer cell lines. To elucidate the mechanism behind the differential effects of 9-ING-41 on either colorectal cancer or immune cells in co-culture and cytokine profiling assays, the inventors performed Western blot analyses on tumor and immune cells treated with 9-ING-41 over a 72-hour time course.
Treating cells from colorectal cancer cell lines with 1 μM 9-ING-41 decreases Surivin, NF-κB p65, and IκBα while increasing PD-L1 levels in, 9-ING-41 treatment of immune cells increases NIK. Western blot analysis of HCT-116 and HT-29 colorectal cancer cells for expression of indicated proteins after increasing durations of 9-ING-41 treatment (0-72 hours). Western blot analysis of TALL-104 T cells for expression of indicated proteins after increasing durations of 9-ING-41 treatment (0-72 hours). […]

[4] = tested on: SW480 tumor cells; test: Immune cell co-culture of TALL-104 T cells and SW480 tumor cells; format: cell-based, Human; conditions: for dead cells out of total cells, average, after normalization: 1:1 TALL-104 to SW480
Procedure: as §1
Co-culture experiments were conducted with GFP+ SW480 colorectal cancer cells and either NK-92 natural killer cells or TALL-104 T cells at various effector/target ratios in a 48-well plate, in the presence or absence of 9-ING-41.
The compound 9-lNG-41 boosts immune cell-mediated tumor cell-killing in a co-culture model. A co-culture of GFP+ SW480 tumor cells and Green CMFDA-labeled TALL-104 T cells treated with 9-ING-41 lead to an increase in tumor cell death after twenty-four hours. […] In the co-culture with tumor and immune cells only, in the absence of drug, the inventors noted that the percentage of dead cells out of total cells was approximately 27%, after normalization. Normalization was carried out by subtracting the percentage of cell death due to drug or vehicle control (DMSO) only from the percentage of dead cells observed in the co-culture treated with drug.
Pre-treatment with 9-ING-41 sensitizes SW480 tumor cells to immune cell-mediated cell killing. To determine if the increased amount of immune-cell mediated tumor cell-killing was due to the drug's impact on the tumor cells or the immune cells, the inventors next pre-treated tumor cells with 9-ING-41 for twenty-four hours before the co-culture with immune cells began. Pre-treatment with 9-ING-41 sensitized SW480 tumor cells to TALL-104 cell-mediated cell killing. The raw percentages of cell death were used to normalize the data. The inventors confirmed these co-culture results using healthy, CD8+ T cells instead of TALL-104 cells.

[5] = tested on: HCT-116; test: Flow cytometric analysis of cell surface markers, HCT-116; format: cell-based, Human; conditions: post-treatment
Procedure: FIG. 12 is a set of bar graphs showing flow cytometric analyses of cell surface markers of tumor and immune cells treated with 9-ING-41 in vitro. FIG. 12(A) HCT-116, FIG. 12(B) HT-29, FIG. 12(C) TALL-104, and FIG. 12(D) NK-92 cells were treated with indicated concentrations of 9-ING-41 for forty-eight hours, stained for indicated cell surface marker expression, and analyzed with a BD LSRII. Statistical significance was determined using two-tailed unpaired T tests.
To further understand the differential 9-ING-41-mediated impacts on protein expression, the inventors treated tumor and immune cells in vitro with 9-ING-41, then performed a flow cytometric analysis for expression of cell surface markers. […] A similar trend occurred in HT-29 cells, although not statistically significant. […] FIG. 10(C). […] FIG. 10(D).

[6] = tested on: GSK-3; conditions: cited from earlier work
[7] = Body weight, complete blood count and serum chemistry in the CT-26 BALB/c model; set-up: species or system BALB/c mice; conditions: mouse, in vivo
Description: As can be expected in mice with significant tumor burdens, mice across treatment groups had decreased albumin levels and evidence of mild marrow hypoplasia resulting in mild anemia, and lower white blood cell and platelet counts. This effect was independent of treatment group and likely related to tumor burden at the time of sacrifice.

In the case of `Cn1cc(C2=C(c3coc4ccc(F)cc34)C(=O)NC2=O)c2cc3c(cc21)OCO3` [9-ING-41], the “benefit over combination αPD-1 therapy+NK-92 only groups” value [1] is listed as “significant benefit”, the blood brain barrier [2] is listed as “crosses the blood brain barrier” and the “IKKβ and Nik” value ([3]; 0-72 hours) is listed as “did not change”. The PD-L1 ([3]; as treatment duration increased) was “increased”, the “Survivin, NF-KB, IKBα, pIKBα, and Bcl-2” value ([3]; by the 72-hour timepoint) was “decreased” and the “dead cells out of total cells, average, after normalization” value ([4]; 5 μM 9-ING-41, 24-hour co-culture) was 33%. The “dead cells out of total cells, average, after normalization” value ([4]; 10 μM 9-ING-41, 24-hour co-culture) was 37%, the “amount of TALL-104 cell-mediated SW480 cell-killing” value ([4]; after treatment, 24 hours) was “dose-dependent increase” and the “T cell (TALL-104) killing of colorectal cancer cells” value ([4]; compared to controls without drug treatment) was “significant increase”. For the same compound, the “tumor cell death in SW480 monocultures treated with drug only” value ([4]; monoculture, no immune cells) was “Limited tumor cell death”, the “TALL-104 cell-mediated cell killing after tumor cell pre-treatment” value ([4]; tumor cells pre-treated 24 hours before co-culture) was “sensitized” and the DR5 expression [5] was “significant decreased”. For the same compound, the ICAM-1 expression [5] was “significant increase”, the “HLA-E and PD-L1 surface expression” value ([5]; 48 hours) was “statistically significant increase” and the GSK-3 isoforms inhibited [6] was “inhibits both α and β isoforms”. For the same compound, the “potency compared with other GSK-3 inhibitors” value [6] was “significantly more potent”, the electrolyte perturbations [7] was “free of significant electrolyte perturbations” and the “renal function (blood urea nitrogen and creatinine)” value [7] was “maintained normal renal function”.
